Our source for the IC50 values is patent publication US12312347B2, “Azaindole derivative and use thereof as FGFR and C-Met inhibitor” (Wuxi Life Fountain Biotech Co., Ltd, priority 2018, dated 2025).

SMILES strings stand for the structures. Structures can show the parent of a compound that is named as a salt. Bounds are passed on as bounds.

Common to all, as to format: biochemical
For one test, the target named is T1, human FGFR4 (Homo sapiens, UniProt P22455).
T1 construct: purchased Invitrogen P3054
The experiment in a line: 33P isotope-labeled kinase activity test, FGFR4. The conditions noted are these: ATP 100 μM. As to the method: (§1) The inhibitory activities of the tested compounds on human FGFR1, FGFR4, and c-Met were evaluated by the IC50 values measured using ^33P isotope-labeled kinase activity test (Reaction Biology Corp).
(§2) Buffer condition: 20 mM Hepes (pH 7.5), 10 mM MgCl2, 1 mM EGTA, 0.02% Brij35, 0.02 mg/mL BSA, 0.1 mM Na3VO4, 2 mM DTT, 1% DMSO.
(§3) Test procedure: The test compounds were dissolved in DMSO at room temperature and formulated to be 10 mM solutions for later use. The substrates were dissolved in freshly prepared buffer, and kinases to be tested were added and mixed well. The test compounds dissolved in DMSO were added to the above mixed reaction solutions by acoustic technique (Echo 550). The concentration of the compound in reaction solution was 1 μM, 0.25 μM, 0.156 μM, 3.91 nM, 0.977 nM, 0.244 nM, 0.061 nM, 0.0153 nM, 0.00381 nM or 10 μM, 2.50 μM, 0.62 μM, 0.156 μM, 39.1 nM, 9.8 nM, 2.4 nM, 0.61 nM, 0.15 nM, 0.038 nM. After incubation for 15 min, ^33P-ATP (activity 0.01 μCi/μL, corresponding concentrations are listed in Table 1) was added to start the reaction. Supplier item number, batch number, as well as the concentration information in the reaction solution of FGFR1, FGFR4, c-Met and substrates thereof are listed in Table 1. […] The kinase activity data are expressed by comparison between the kinase activity in the test compound group and the kinase activity in the blank group (containing DMSO only). IC50 values were obtained by curve fitting with Prism4 software (GraphPad).

For a further test, the target named is T2, human c-Met (Homo sapiens, UniProt P08581).
T2 construct: purchased Invitrogen PV3143
The experiment in a line: 33P isotope-labeled kinase activity test, c-Met. The conditions noted are these: ATP 10 μM. As to the method:
as §1, §2, §3

The next test has as its target T3, human FGFR1 (Homo sapiens, UniProt P11362).
T3 construct: purchased Invitrogen PV3146
The experiment in a line: 33P isotope-labeled kinase activity test, FGFR1. The conditions noted are these: ATP 5 μM. As to the method:
as §1, §2
as §3, with “The concentration of the compound in reaction solution was 1 μM, 0.25 μM, 0.156 μM, 3.91 nM, 0.977 nM, 0.244 nM, 0.061 nM, 0.0153 nM, 0.00381 nM or 10 μM, 2.50 μM, 0.62 μM, 0.156 μM, 39.1 nM, 9.8 nM, 2.4 nM, 0.61 nM, 0.15 nM, 0.038 nM.” left out

T1 sequence (P22455 22-802): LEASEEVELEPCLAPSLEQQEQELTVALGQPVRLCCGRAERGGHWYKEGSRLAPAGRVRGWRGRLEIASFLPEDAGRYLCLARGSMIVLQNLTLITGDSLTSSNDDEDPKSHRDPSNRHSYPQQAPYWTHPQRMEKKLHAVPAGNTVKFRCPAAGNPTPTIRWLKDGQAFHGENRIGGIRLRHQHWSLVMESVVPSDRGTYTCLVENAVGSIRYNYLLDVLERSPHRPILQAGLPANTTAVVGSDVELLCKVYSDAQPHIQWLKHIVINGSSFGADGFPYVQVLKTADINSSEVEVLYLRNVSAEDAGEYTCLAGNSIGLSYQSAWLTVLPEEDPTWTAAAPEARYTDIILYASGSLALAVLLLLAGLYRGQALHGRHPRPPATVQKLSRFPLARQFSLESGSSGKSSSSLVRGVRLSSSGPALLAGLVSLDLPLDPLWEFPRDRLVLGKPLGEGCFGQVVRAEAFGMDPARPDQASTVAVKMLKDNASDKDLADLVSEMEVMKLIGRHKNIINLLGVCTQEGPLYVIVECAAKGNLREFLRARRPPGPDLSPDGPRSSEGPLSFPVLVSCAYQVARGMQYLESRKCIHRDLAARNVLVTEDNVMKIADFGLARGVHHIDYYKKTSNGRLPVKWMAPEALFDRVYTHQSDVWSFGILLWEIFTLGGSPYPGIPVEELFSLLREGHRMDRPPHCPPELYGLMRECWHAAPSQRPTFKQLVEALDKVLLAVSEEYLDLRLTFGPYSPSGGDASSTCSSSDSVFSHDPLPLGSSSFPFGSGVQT
T3 sequence (P11362 22-822): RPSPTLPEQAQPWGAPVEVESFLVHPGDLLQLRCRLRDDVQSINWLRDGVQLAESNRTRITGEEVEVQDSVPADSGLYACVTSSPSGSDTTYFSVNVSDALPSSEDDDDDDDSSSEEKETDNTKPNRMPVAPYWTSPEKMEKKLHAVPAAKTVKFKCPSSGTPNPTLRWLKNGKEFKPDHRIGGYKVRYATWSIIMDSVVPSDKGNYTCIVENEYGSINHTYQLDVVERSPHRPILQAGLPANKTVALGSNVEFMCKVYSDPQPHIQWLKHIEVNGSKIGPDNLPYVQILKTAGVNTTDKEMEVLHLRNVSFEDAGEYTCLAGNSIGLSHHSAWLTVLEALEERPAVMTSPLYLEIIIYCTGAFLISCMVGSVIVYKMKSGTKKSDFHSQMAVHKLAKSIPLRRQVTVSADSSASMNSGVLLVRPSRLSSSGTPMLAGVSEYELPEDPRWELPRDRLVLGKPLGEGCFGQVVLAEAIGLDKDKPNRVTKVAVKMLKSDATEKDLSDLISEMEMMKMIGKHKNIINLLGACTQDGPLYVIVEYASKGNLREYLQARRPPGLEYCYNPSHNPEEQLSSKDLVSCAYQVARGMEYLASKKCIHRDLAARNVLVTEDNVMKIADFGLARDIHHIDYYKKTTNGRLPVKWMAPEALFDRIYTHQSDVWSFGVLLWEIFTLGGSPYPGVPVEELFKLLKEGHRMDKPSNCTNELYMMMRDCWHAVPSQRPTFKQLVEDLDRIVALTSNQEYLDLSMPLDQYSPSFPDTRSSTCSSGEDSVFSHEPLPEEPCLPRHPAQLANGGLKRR
T2 sequence (P08581 25-1390): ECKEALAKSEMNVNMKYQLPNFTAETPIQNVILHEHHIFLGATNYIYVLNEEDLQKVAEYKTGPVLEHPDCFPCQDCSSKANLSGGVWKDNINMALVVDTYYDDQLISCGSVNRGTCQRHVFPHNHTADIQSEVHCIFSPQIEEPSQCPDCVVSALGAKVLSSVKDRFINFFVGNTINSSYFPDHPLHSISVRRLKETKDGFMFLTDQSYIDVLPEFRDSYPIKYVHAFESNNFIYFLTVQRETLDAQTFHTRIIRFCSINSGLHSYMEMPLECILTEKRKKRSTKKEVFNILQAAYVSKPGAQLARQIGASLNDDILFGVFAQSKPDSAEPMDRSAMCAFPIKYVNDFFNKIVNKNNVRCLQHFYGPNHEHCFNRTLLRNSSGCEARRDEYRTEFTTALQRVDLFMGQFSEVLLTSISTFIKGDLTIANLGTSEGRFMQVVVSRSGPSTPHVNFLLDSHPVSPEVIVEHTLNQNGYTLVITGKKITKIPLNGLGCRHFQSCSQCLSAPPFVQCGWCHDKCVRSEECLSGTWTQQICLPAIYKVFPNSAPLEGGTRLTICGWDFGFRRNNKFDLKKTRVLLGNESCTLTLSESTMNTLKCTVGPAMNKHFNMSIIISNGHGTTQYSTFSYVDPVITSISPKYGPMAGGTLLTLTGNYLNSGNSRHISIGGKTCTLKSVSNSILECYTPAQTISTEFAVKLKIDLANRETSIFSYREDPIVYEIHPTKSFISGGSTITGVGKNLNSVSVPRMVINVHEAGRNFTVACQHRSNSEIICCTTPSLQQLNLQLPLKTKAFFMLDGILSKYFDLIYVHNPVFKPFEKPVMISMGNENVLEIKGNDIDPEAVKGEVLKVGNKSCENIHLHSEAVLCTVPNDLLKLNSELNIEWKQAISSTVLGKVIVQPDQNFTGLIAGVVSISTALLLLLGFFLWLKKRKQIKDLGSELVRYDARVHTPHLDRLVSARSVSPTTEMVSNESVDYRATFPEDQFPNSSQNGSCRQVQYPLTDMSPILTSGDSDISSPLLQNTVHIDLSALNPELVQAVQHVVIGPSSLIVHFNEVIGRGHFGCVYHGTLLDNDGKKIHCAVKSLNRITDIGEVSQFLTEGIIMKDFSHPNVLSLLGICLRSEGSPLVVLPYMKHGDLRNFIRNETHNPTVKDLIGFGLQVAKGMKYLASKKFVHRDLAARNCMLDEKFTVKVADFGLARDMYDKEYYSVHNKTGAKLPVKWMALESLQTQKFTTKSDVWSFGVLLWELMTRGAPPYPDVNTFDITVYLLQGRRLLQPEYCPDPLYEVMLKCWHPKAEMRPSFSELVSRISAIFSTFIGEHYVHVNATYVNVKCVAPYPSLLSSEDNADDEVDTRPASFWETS

For `CC(c1c(Cl)ccc(F)c1Cl)c1c[nH]c2ncc(-c3cnn(CCO)c3)cc12` (single isomer, unassigned) [Comparative Compound 1a, reference compound], the IC50 was > 10000 nM against human FGFR4 and 758 nM against human c-Met.

For the compound `CC(c1c(Cl)ccc(F)c1Cl)c1c[nH]c2ncc(-c3cnn(CCO)c3)cc12` (stereo not drawn) [Comparative Compound 1b, reference compound], the values for the IC50 on human FGFR4 and against human c-Met were 5090 nM and 11.1 nM, respectively. Turning to `COc1ccc(Cl)c(Cc2c[nH]c3ncc(-c4cnn(C5CCNCC5)c4)nc23)c1Cl` [Embodiment 7], the IC50 on human FGFR1 was 85.9 nM; on human FGFR4 it was > 10000 nM; against human c-Met it was 41.5 nM. With `COc1cc(OC)c(F)c(Cc2c[nH]c3ncc(-c4cnn(C5CCNCC5)c4)cc23)c1F` [Embodiment 9], the values for the IC50 against human FGFR1, against human FGFR4 and on human c-Met were 0.8 nM, 18.3 nM and 11.3 nM, respectively. With `COc1cc(OC)c(F)c(Cc2c[nH]c3ncc(-c4cn(C5CCNCC5)nc4C)cc23)c1F` [Embodiment 32], the IC50 came to 13.5 nM on human FGFR4 and 6.2 nM at human c-Met. On the same counts, the results for `CCN1CCC(n2cc(-c3cnc4[nH]cc(Cc5c(F)ccc(OC)c5F)c4c3)cn2)CC1` [Embodiment 38] are 599 nM and 9.1 nM. Consider `CCN1CCC(n2cc(-c3cnc4[nH]cc(Cc5c(F)ccc(OC)c5F)c4c3)c(C#N)n2)CC1` [Embodiment 45], for which the IC50 at human FGFR4 turned out to be 351 nM; at human c-Met it was 9.1 nM.

`CCN1CCC(n2ccc(-c3cnc4[nH]cc(Cc5c(F)c(OC)nc(OC)c5F)c4c3)n2)CC1` [Embodiment 75]: the IC50 on human FGFR4 is 10.6 nM; on human c-Met it was 3.26 nM. Take `COc1cc(OC)c(F)c(Cc2c[nH]c3ncc(-c4ccnc(N5CCN(C)CC5)c4)cc23)c1F` [Embodiment 78]: the IC50 on human FGFR4 came out at 9.8 nM; at human c-Met, 141 nM. The matching figures for `COc1cc(OC)c(F)c(Cc2n[nH]c3ncc(-c4cnn(C5CCNCC5)c4)cc23)c1F` [Hydrochloride of embodiment 2]: 137 nM and 7.8 nM. On the same counts, the results for `CCN1CCC(n2cc(-c3cnc4[nH]nc(Cc5c(F)c(OC)cc(OC)c5F)c4c3)cn2)CC1` [Hydrochloride of embodiment 3] are 148 nM and 76.1 nM. Consider `CCN1CCC(n2cc(-c3cnc4[nH]nc(Cc5c(F)ccc(OC)c5F)c4c3)cn2)CC1` [Hydrochloride of embodiment 4], for which the IC50 on human FGFR4 was 799 nM; on human c-Met it was 177 nM. The matching figures for `COc1ccc(F)c(Cc2c[nH]c3ncc(-c4cn(C5CCNCC5)nc4C)cc23)c1F` [Hydrochloride of embodiment 36]: 684 nM and 27.3 nM. The matching figures for `CCN1CCC(n2cc(-c3cnc4[nH]cc(Cc5c(F)c(OC)cc(OC)c5F)c4c3)c(C)n2)CC1` [Hydrochloride of embodiment 37]: 52.4 nM and 33 nM. The matching figures for `COc1cc(OC)c(F)c(Cc2c[nH]c3ncc(-c4cn(C5CCN(C)CC5)nc4C#N)cc23)c1F` [Hydrochloride of embodiment 43]: 61.7 nM and 57.1 nM. `COc1cc(OC)c(F)c(Cc2c[nH]c3ncc(-c4cncc(C5=CCNCC5)n4)cc23)c1F` [Hydrochloride of embodiment 63] had an IC50 against human FGFR1 of 9.41 nM. Consider `CCN1CCC(c2cncc(-c3cnc4[nH]cc(Cc5c(F)c(OC)cc(OC)c5F)c4c3)n2)CC1` [Hydrochloride of embodiment 65], for which the IC50 against human FGFR4 stood at 2.7 nM; against human c-Met, 135 nM. The matching figures for `COc1cc(OC)c(F)c(Cc2c[nH]c3ncc(-c4cnn(CCNC(C)C)c4)cc23)c1F` [Hydrochloride of embodiment 68]: 10 nM and 53.5 nM. The matching figures for `COc1cc(OC)c(F)c(Cc2c[nH]c3ncc(-c4cnn(CCCNC(C)C)c4)cc23)c1F` [Hydrochloride of embodiment 72]: 53.1 nM and 70.8 nM.

Consider `CCN1CCC(n2cc(-c3cnc4[nH]c(C)c(Cc5c(F)c(OC)cc(OC)c5F)c4c3)cn2)CC1` [Hydrochloride of embodiment 74], for which the concentration for half-maximal inhibition (IC50) against human FGFR4 is 56.4 nM; on human c-Met it was 4.2 nM. On the same counts, the results for `COc1cc(OC)c(F)c(Cc2n[nH]c3ncc(-c4cnn(CCO)c4)cc23)c1F` [Trifluoroacetate salt of embodiment 1] are 39.7 nM and 1290 nM.

As for `COc1cc(OC)c(F)c(Cc2c[nH]c3ncc(-c4cnn(C5CCNCC5)c4)nc23)c1F` [Trifluoroacetate salt of embodiment 5], the figures for the IC50 on human FGFR4 and at human c-Met were 20.3 nM and 47.2 nM, respectively. As for `COc1ccc(Cl)c(Cc2c[nH]c3ncc(-c4cnn(C5CCNCC5)c4)cc23)c1Cl` [Trifluoroacetate salt of embodiment 10], the figures for the IC50 on human FGFR4 and at human c-Met were 1710 nM and 8.7 nM, respectively. For the compound `COc1cc(Cc2c[nH]c3ncc(-c4cnn(C5CCNCC5)c4)cc23)cc(OC)c1` [Trifluoroacetate salt of embodiment 11], the IC50 on human FGFR1 turned out to be 17.1 nM; at human FGFR4, 550 nM. As to `CCN1CCC(n2cc(-c3cnc4[nH]cc(Cc5c(F)c(OC)cc(OC)c5F)c4c3)cn2)CC1` [Trifluoroacetate salt of embodiment 12], the IC50 at human FGFR4 amounted to 36 nM; on human c-Met it was 3.17 nM. The matching figures for `COc1cc(OC)c(F)c(Cc2c[nH]c3ncc(-c4cnn(C5CCN(C(C)=O)CC5)c4)cc23)c1F` [Trifluoroacetate salt of embodiment 17]: 7.5 nM and 11.6 nM. With `COc1cc(OC)c(F)c(Cc2c[nH]c3ncc(-c4cnn(C5CCN(S(C)(=O)=O)CC5)c4)cc23)c1F` [Trifluoroacetate salt of embodiment 18], the IC50 at human FGFR4 stood at 29.7 nM; against human c-Met, 16.1 nM.

As to `CNC(=O)c1cc(Cc2c[nH]c3ncc(-c4cnn(C5CCNCC5)c4)cc23)c(Cl)c(OC)c1` [Trifluoroacetate salt of embodiment 20], the results for the IC50 on human FGFR4 and against human c-Met were 158 nM and 12 nM, respectively. The matching figures for `COc1cc(OC)c(F)c(Cc2c[nH]c3ncc(-c4cnn(C5CCOCC5)c4)cc23)c1F` [Trifluoroacetate salt of embodiment 22]: 29.2 nM and 23.8 nM. The matching figures for `COc1cc(OC)c(F)c(Cc2c[nH]c3ncc(-c4cnn(C5CNC5)c4)cc23)c1F` [Trifluoroacetate salt of embodiment 24]: 252 nM and 76.5 nM.

Regarding `COc1cc(OC)c(F)c(Cc2c[nH]c3ncc(-c4cnn(C5CN(C(C)=O)C5)c4)cc23)c1F` [Trifluoroacetate salt of embodiment 26], the figures for the IC50 against human FGFR4 and at human c-Met were 35.3 nM and 13.8 nM, respectively.

On to `COc1cc(OC)c(F)c(Cc2c[nH]c3ncc(-c4cnn(C5CN(CCO)C5)c4)cc23)c1F` [Trifluoroacetate salt of embodiment 27], for which the IC50 came to 13.1 nM at human FGFR4 and 6.7 nM against human c-Met. On the same counts, the results for `COc1cc(OC)c(F)c(Cc2c[nH]c3ncc(-c4cn(C5CCN(C)CC5)nc4C)cc23)c1F` [Trifluoroacetate salt of embodiment 35] are 23.5 nM and 14 nM.

Consider `COc1cc(OC)c(F)c(Cc2c[nH]c3ncc(-c4cn(C)nc4C#N)cc23)c1F` [Trifluoroacetate salt of embodiment 44], for which the IC50 came out at 32.3 nM at human FGFR4 and 191 nM at human c-Met. On the same counts, the results for `COc1cc(OC)c(Cl)c(Cc2c[nH]c3ncc(-c4cnn(C5CCNCC5)c4)cc23)c1Cl` [Trifluoroacetate salt of embodiment 49] are 529 nM and 8.8 nM. The matching figures for `COc1cc(OC)c(F)c(Cc2c[nH]c3ncc(-c4ccc(N5CCN(C)CC5)nc4)cc23)c1F` [Trifluoroacetate salt of embodiment 62]: 8.6 nM and 132 nM. `COc1cc(OC)c(F)c(Cc2c[nH]c3ncc(-c4cnn(CCS(C)(=O)=O)c4)cc23)c1F` [Trifluoroacetate salt of embodiment 76] yielded an IC50 against human FGFR4 of 3.87 nM. Same read-out and setting: the same measure for `COc1nc(OC)c(F)c(Cc2c[nH]c3ncc(-c4cnn(CCS(C)(=O)=O)c4)cc23)c1F` [Trifluoroacetate salt of embodiment 77]: 3.41 nM.
